Several values for one entry are separate records, joined by “and”; a condition that tells them apart may be missing. Equal values may be shown once.

In general, inhibition refers to the percentage by which the read-out fell short of the control.

Test [1] has as its system P. aeruginosa PA01 reference strain. In words: High-content screening in the presence of doxycycline. Particulars: compound 10 μM, doxycycline 4 mg/L.
The subject of test [2] is P. aeruginosa FB1 (Mex B deleted). In words: Antibiotic susceptibility testing (broth micro-dilution MIC), strain FB1. Format: cell-based. Particulars: Pseudomonas aeruginosa, read-out: Minimal Inhibitory Concentration. The method, then: Experiments were performed on the BAC-SCREEN platform of the UMR-MD1, with a Freedom EVO 150 liquid handling system (Tecan, Lyon, France).

Test [3] relates to P. aeruginosa PA01 (wt). The test can be described thus: Antibiotic susceptibility testing (broth micro-dilution MIC), strain PA01. Format: cell-based, Pseudomonas aeruginosa. Background: Dilution methods test growth across graded concentrations, often in twofold steps.
In test [4] the test system is cytoplasmic membrane of PA01. The test can be described thus: Inner membrane depolarization assay (Disc3(5) fluorescence). Format: cell-based, Pseudomonas aeruginosa. The settings on record: PA01, Disc3(5) fluorescence. The procedure: Inner membrane depolarization assay
Cells were grown to a mid-
logarithmic phase, recovered by centrifugation (3000 X g for 20 min) and washed in 5 mM 4-(2-
hydroxyethyl)piperazine-1-ethanesulfonic acid (HEPES, pH 7.0) containing 10 mM EDTA. After 5
min incubation at room temperature, cells were recovered by centrifugation (3000 X g for 20
min), and resuspended in 5 mM HEPES (pH 7.0) containing 50 mM glucose, OD600 nm was
adjusted to 0.29. Five µl of a 160 µM suspension of [3,3’-Dipropylthiadicarbocyanine iodide]
(Disc3(5)) were added after 90 sec to 100 µl of a bacterial suspension, in a 96-well Greiner black
microplate, to reach 8 µM final concentration. After a 16.5 min incubation period allowing
incorporation of the dye into the polarized membrane, 10 µl of the appropriate compound
concentration were added. Fluorescence was monitored every 30 sec on an Infinite M200
microplate reader (Tecan; excitation wavelength 622nm and emission wavelength 690nm).
Assays were performed in two independent experiments and statistically significance was
assessed using a student’s t-test. A p-value ≤ 0.05 was considered significant.
(1 picture or pasted object on this page, not shown here)

For test [5], the system named is efflux of 1,2'-dinaphthylamine in strain PA01. In words: Real-time efflux assay (1,2'-dinaphthylamine, glucose-triggered). Format: cell-based, Pseudomonas aeruginosa. The procedure:
The experiments were performed as previously described with slight modifications. For each strain, 20 mL of MHII was inoculated with a single colony from a fresh plate and grown at 37°C to the stationary phase. […] They were then loaded over night with the dye 1,2’-dinaphthylamine (TCI-Europe SA, Zwijndrecht, Belgium) at a final concentration of 32 μM, in the presence of 5 μM CCCP. […] In a 96-well Greiner black microplate (Greiner, Courtaboeuf, France), a gradient of inhibitor (when used) was prepared in PPB, and bacteria were added (100 μL per well). The fluorescence of the cell suspension, was monitored each 22 sec during 1200 sec on an Infinite M200 microplate reader (Tecan; excitation wavelength 370 nm and emission wavelength 420 nm). In order to trigger the transport, glucose (50 mM final concentration) is added at 200 sec. The maximum efficacy of the efflux is the difference between the value obtained without and with glucose addition after 1200 sec. For each compound, the efficiency of efflux inhibition is calculated as the difference between the maximum efficacy of transport and the residual transport obtained at various concentrations of the compound.

As to `CC(C)=CCCC(C)=CCCC(C)=CCNCCCNCCCCNCCCN` [Compound 3], the “bacterial growth in combination with doxycycline” value in test [1] is “completely abolished bacterial growth”. Further, the MIC in test [2] is 25 µg/mL and 62.5 µM. Moreover, in test [3] (PA01, compound 10µM), the “MIC of Amikacin in the presence of the compound” value came out at 64 µg/mL, the “MIC of Ceftazidime in the presence of the compound” value came out at 2 µg/mL, the “MIC of Ciprofloxacin in the presence of the compound” value amounted to 0.125 µg/mL and the “MIC of Ticarcillin in the presence of the compound” value was 16 µg/mL. Besides, in test [3] (Pseudomonas aeruginosa, read-out: Minimal Inhibitory Concentration), the MIC is 25 µg/mL and 62.5 µM. Moreover, the cytoplasmic membrane depolarization result in test [4] is “dissipated the proton motive force”. For the same molecule, in test [5], the “rank of efflux inhibition among compounds 1-4 and PAßN” value is “the most efficient”. In addition, in test [5] (Pseudomonas aeruginosa, 2.5x10^8 cfu/mL, read-out: concentration needed to inhibit 50% of 1,2'DNA efflux), the IC50 was 31.2 µM. In test [5] (Pseudomonas aeruginosa, compound at 31.25μM), testing at 31.25 µM gave an inhibition of 60%. Further, the efflux inhibition result in test [5] (compound at 15.6μM) was “fifty percent efflux inhibition”. Also, in test [5] (compound at 125μM), the efflux inhibition entry is listed as “completely abolished the transportation of dye”.

The values are drawn from paper PMC4859512, “Polyamino-Isoprenic Derivatives Block Intrinsic Resistance of P. aeruginosa to Doxycycline and Chloramphenicol In Vitro” (PLoS ONE, 2016).
